According to patent US20070191337A1, “Annellated carbamyl-aza-heterocyclic compounds, a focused library, pharmaceutical compositions, and methods of preparing the same” (priority 2004, published 2007):

Assays:
Assay in all cases: Anticancer activity: growth inhibition in tissue culture (Alamar Blue)
Format in all cases: cell-based
[1] = tested on: DU-145 (carcinoma of the brain); settings: DU-145 cells, 30 μM, 48 hours, Alamar Blue fluorescence; result in words
Experimental: (§1) A focused library was compiled to include compounds of general formula 1, as shown in Tables 1.01 to 1.23, and tested for anticancer activity. Anticancer activity of the compounds was measured by their capacity to kill cancerous cells in a tissue culture. Three cell lines representing three types of cancerous tumors were chosen, in particular: DLD-1 (adenocarcinoma of the rectum), DU-145 ([…]), and T-47D (tumor of the mammary gland). All the cell cultures were received from the American Tissue Culture Collection (ATCC). The efficiency of the compounds was assessed by measuring the number of […] cells following treatment with the test compounds over 48 hours. The cells were seeded at a concentration of 5*10^3 cells per hole of a standard 96-hole plate and left overnight for cells to be attached to the hole bottom. Whereupon the test compounds were added to the cells at an ultimate concentration of 30 μM, and the plates were left for 48 hours in an incubator at 37° C. maintaining the 5% CO2/95% air atmosphere at 100% humidity. At the end of the experiment, the medium with the compounds was sucked out of all the holes, and the holes were rinsed twice with physiological solution. […] of Alamar Blue solution was added to each hole, and fluorescence (λex=531 nm, λem=589 nm) was measured immediately after addition and 2 hours thereafter. The rate of fluorescence growth was proportional to the number of cells that survived incubation with the test compounds [John O'Brien, Ian Wilson, Terry Orton and Francois Pognan, “Investigation of the Alamar Blue (resazurin) Fluorescent Dye for the Assessment of Mammalian Cell Cytotoxicity.” Eur. J. Biochem. 2000,b 267, 5421-5426]. The proportion of cell growth suppression was found from the following equation: % of growth inhibition=((ΔΦk−ΔΦi)/ΔΦk)*100%, wherein: ΔΦ means increase in fluorescence over […] following addition of the Alamar Blue solution, and the subscripts […] and i mean, respectively, control cells (grown without any compounds added) and experimental cells (grown in the presence of test compounds).

[2] = tested on: DLD-1 (adenocarcinoma of the rectum); settings: DLD-1 cells, 30 μM, 48 hours, Alamar Blue fluorescence; result in words
Experimental: as §1

[3] = tested on: T-47D (tumor of the mammary gland); settings: T-47D cells, 30 μM, 48 hours, Alamar Blue fluorescence; result in words
Experimental: as §1

For `CCc1ccc(-c2cc3n(n2)CC(C)(C(=O)NC2CCCCC2)N(CCN2CCCC2)C3=O)cc1` (stereo not drawn) [1.5(3){50}, cyclohexylamide of 6-methyl-4-oxo-5-(2-pyrrolidin-1-yl-ethyl)-2-(4-ethylphenyl)-4,5,6,7-tetrahydropyrazolo[1,5-a]pyrazine-6-carbonic acid], the “suppression of tumor cell growth (% of growth inhibition)” value (“suppression … (% of growth inhibition)” below) [1] was “equally good at suppressing cell growth in all three cancer tumors”, the “suppression … (% of growth inhibition)” value [2] was “equally good at suppressing cell growth in all three cancer tumors” and the “suppression … (% of growth inhibition)” value [3] was “equally good at suppressing cell growth in all three cancer tumors”.
